Results from ChEMBL document CHEMBL4680258, “Synthesis, characterization and carbonic anhydrase I and II inhibitory evaluation of new sulfonamide derivatives bearing dithiocarbamate” (Eur J Med Chem, 2020).

Test system: NIH3T3
Assay: Cytotoxicity against mouse NIH/3T3 cells assessed as reduction in cell viability incubated for 24 hrs by MTT assay
Format: cell-based
Conditions: NIH3T3, 24 h

Point of comparison: `NS(=O)(=O)c1ccc(NC(=O)CSC(=S)N2CCN(c3ccccn3)CC2)cc1`, IC50 18.5 µM. Against it:
- Cc1ccc(CN2CCN(C(=S)SCC(=O)Nc3ccc(S(N)(=O)=O)cc3)CC2)cc1 — 3.1-fold higher, 58.1 µM
- CN(C)CCN1CCN(C(=S)SCC(=O)Nc2ccc(S(N)(=O)=O)cc2)CC1 — higher, > 1000 µM
- NS(=O)(=O)c1ccc(NC(=O)CSC(=S)N2CCN(c3ncccn3)CC2)cc1 — within 1.5-fold, 16.5 µM
- CN1CCN(C(=S)SCC(=O)Nc2ccc(S(N)(=O)=O)cc2)CC1 — within 1.5-fold, 14.5 µM
- CN(C)CCCN1CCN(C(=S)SCC(=O)Nc2ccc(S(N)(=O)=O)cc2)CC1 — higher, > 1000 µM
